Results as given in ChEMBL document CHEMBL1201862, “PubChem BioAssay data set” (2004).
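In this assay, cells in 96-well plates receive the compound at five concentrations for 48 hours. Endpoints are linearly interpolated between the surrounding concentrations. At the GI50, growth is halved.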 The source made the active and inactive calls. Cut-off read from the data, not from the text of the source: active = GI50 up to about 1.1 µM and inactive = higher.

Assays:
Experiment in all cases: NCI anticancer screen, dose series, 48 h
[1] = test system: COLO 205
[2] = test system: SK-MEL-2
[3] = test system: UACC-62
[4] = test system: SNB-19
[5] = test system: M14
[6] = test system: SF-539
[7] = test system: MCF7
[8] = test system: OVCAR-5
[9] = test system: EKVX
[10] = test system: OVCAR-8
[11] = test system: PC-3
[12] = test system: CAKI-1
[13] = test system: MOLT-4
[14] = test system: MDA-N
[15] = test system: HCC 2998
[16] = test system: HT-29
[17] = test system: SK-OV-3
[18] = test system: HCT-116
[19] = test system: CCRF-CEM
[20] = test system: OVCAR-4

Measured: GI50

CCOP(=O)(OCC)/C(C#N)=C/c1cccn1CC(C)C
inactive: [1] > 100 µM | [2] > 100 µM | [3] > 100 µM | [4] > 100 µM | [5] > 100 µM | [6] > 100 µM | [7] > 100 µM | [8] > 100 µM | [9] > 100 µM | [10] > 100 µM | [11] 93.3 µM | [12] > 100 µM | [13] 52.5 µM | [14] > 100 µM | [15] > 100 µM | [16] > 100 µM | [17] > 100 µM | [18] > 100 µM

O=CC(O)C(O)C(O)C(O)C(=O)NCCCCCCCCCCCCNC(=O)C(O)C(O)C(O)C(O)C=O (configuration not stated)
inactive: [1] > 100 µM | [2] > 100 µM | [3] > 100 µM | [4] > 100 µM | [19] > 100 µM | [5] > 100 µM | [6] > 100 µM | [7] > 100 µM | [8] > 100 µM | [9] > 100 µM | [10] > 100 µM | [11] > 100 µM | [20] > 100 µM | [13] > 100 µM | [14] > 100 µM | [15] > 100 µM | [16] > 100 µM | [17] > 100 µM | [18] > 100 µM

CCCCCCC(N)(CCCCCC)C(=O)Nn1c(C)ccc1C
inactive: [1] 57.4 µM | [2] > 100 µM | [3] 48 µM | [4] > 100 µM | [19] > 100 µM | [5] > 100 µM | [7] 14.6 µM | [8] > 100 µM | [9] 12 µM | [10] 50 µM | [11] 5.14 µM | [20] > 100 µM | [13] > 100 µM | [14] > 100 µM | [15] > 100 µM | [16] 28.4 µM | [17] > 100 µM | [18] 10.9 µM

COc1ccc(-n2sc3ncccc3c2=O)cc1
inactive: [1] 16.9 µM | [2] > 100 µM | [3] 36.4 µM | [4] > 100 µM | [19] 8.32 µM | [5] 21.9 µM | [6] 17.3 µM | [7] 19.9 µM | [8] 24.8 µM | [9] 14.8 µM | [10] 26.8 µM | [11] 23.8 µM | [20] > 100 µM | [13] 8.18 µM | [14] 21.5 µM | [15] 46.5 µM | [16] 20.8 µM | [17] > 100 µM | [18] 17.7 µM

Cc1[nH]c(=O)c2oc3cc4ccccc4cc3c2c1C(=O)O
inactive: [2] > 10 µM | [3] > 10 µM | [4] > 10 µM | [5] > 10 µM | [6] > 10 µM | [7] > 10 µM | [8] > 10 µM | [9] > 10 µM | [10] > 10 µM | [11] > 10 µM | [20] > 10 µM | [14] > 10 µM | [15] > 10 µM | [16] > 10 µM | [17] > 10 µM

CO[C@@H](C(=O)OC1C=CC2(CC1)C(=O)N(C)c1ccccc12)c1ccccc1 (some centres not stated)
inactive: [1] 60 µM | [2] > 100 µM | [3] > 100 µM | [4] > 100 µM | [19] > 100 µM | [5] 72.6 µM | [7] 50.8 µM | [8] > 100 µM | [9] 57 µM | [10] > 100 µM | [11] > 100 µM | [20] 70.3 µM | [12] > 100 µM | [13] 40.4 µM | [14] > 100 µM | [15] > 100 µM | [16] 65.8 µM | [17] > 100 µM | [18] 52.5 µM

O=C1C(Br)=C(c2ccccc2)O/C1=C/C(=O)c1ccc(Br)cc1
inactive: [1] > 100 µM | [3] 23.9 µM | [4] > 100 µM | [19] 26.3 µM | [5] > 100 µM | [6] > 100 µM | [7] 36.7 µM | [8] > 100 µM | [9] > 100 µM | [10] 27 µM | [11] 14.2 µM | [20] 66.7 µM | [12] 19 µM | [13] 31.6 µM | [14] 15.5 µM | [15] > 100 µM | [16] 36.1 µM | [18] 39.4 µM

O=[N+]([O-])C(=C(Nc1cccc2cccnc12)Nc1cccc2cccnc12)C(Cl)=C(Cl)Cl
inactive: [1] 31 µM | [3] 77.1 µM | [4] > 96.2 µM | [19] 34 µM | [5] > 100 µM | [6] > 100 µM | [7] 13.5 µM | [8] > 100 µM | [9] > 100 µM | [10] 33.2 µM | [11] > 76 µM | [20] 34 µM | [12] > 49.9 µM | [13] 74.1 µM | [14] 31.7 µM | [15] > 61.7 µM | [16] > 39 µM | [17] > 100 µM | [18] 45 µM

Clc1ccc(CSc2ncnc3c2ncn3C2CCCCO2)cc1 (configuration not stated)
inactive: [1] 20 µM | [2] 16.4 µM | [3] 15.7 µM | [4] 34.8 µM | [5] 17.1 µM | [7] 26.6 µM | [8] 37.4 µM | [9] 13.4 µM | [10] 22.9 µM | [11] 25.6 µM | [20] 25.2 µM | [12] 26.3 µM | [14] 20.1 µM | [15] 18.6 µM | [16] 18.8 µM | [17] 21.4 µM | [18] 20.8 µM

CC(C)(C)O/C=C1/C(=O)OC2C[C@@H](O[Si](C)(C)C(C)(C)C)CC12 (some centres not stated)
inactive: [1] 72.9 µM | [2] > 100 µM | [4] 94.2 µM | [19] 42.7 µM | [5] 54.6 µM | [7] 36.1 µM | [8] > 100 µM | [9] > 100 µM | [10] 48.1 µM | [11] 45.5 µM | [20] 74 µM | [12] > 100 µM | [14] > 100 µM | [15] > 100 µM | [16] 68.1 µM | [17] > 100 µM | [18] 37.1 µM

O=C(/C=C/c1cccs1)c1ccsc1
inactive: [1] 18.1 µM | [2] 36.2 µM | [3] 16.5 µM | [4] 18.9 µM | [19] 16.5 µM | [5] 39.2 µM | [7] 10.4 µM | [8] 26.9 µM | [9] 31.1 µM | [10] 27.6 µM | [11] 22.4 µM | [20] 51.1 µM | [12] 56.5 µM | [13] 16.9 µM | [14] 18.9 µM | [15] 17.4 µM | [16] 19.3 µM | [17] 33.4 µM
